This is an account of results in US7196110B2, “N-substituted tricyclic 3-aminopyrazoles as inhibitors for the treatment of cell proliferative disorders” (Janssen Phamaceutica N.V., priority 2002, dated 2007).

Read-outs that look alike come from different tables or passages of the source.

The assay addresses T1, PDGF-receptor beta enzyme comprising the tyrosine kinase domain (Homo sapiens, UniProt P09619).
T1 construct: from amino acid 545 to 1106 of GenBank Access NO: AAA36427
Put plainly: Inhibition of PDGF-receptor kinase activity (cell-free, PLC1 peptide, 33P Flashplate). The class given is biochemical. The conditions noted are these: for inhibition at 10 µM / Percent Inhibition @ 10 uM: compound at 10 uM; for inhibition at 10 µM: read-out: Percent Inhibition @ 10 uM. The procedure: PDGF-R kinase activity was assayed by its ability to phosphorylate one of its target proteins, PLCγ, in a cell-free system, in particular, a PLC1 peptide comprising the tyrosine residue where the phosphorylation occurs was used for the assay.
10× Kinase Buffer (500 mM Tris-HCl pH=8, 100 mM MgCl2, 1 mM Na3VO4); 10 mM DTT (final concentration at 1 mM in assay); 10 mM ATP (final concentration at 5 μM in assay); ^33P-γ-ATP (Cat. No.: NEG/602H. 2000-3000 Ci/mmol) purchased from NEN; Purified, soluble, recombinant PDGF-receptor beta enzyme comprising the tyrosine kinase domain (from amino acid 545 to 1106 of GenBank Access NO: AAA36427 ) at 0.4 mg/mL; Enzyme Dilution Buffer (50 mM Tris-HCl pH=8.0, 0.1% BSA); Wash/Stop Buffer (PBS +100 mM EDTA); NEN Streptavidin Flashplates (Cat. No.: SMP-103) which binds to the biotinylated PLC1 peptide but not the PDGF-R enzyme; PLC1 peptide (Biotin-[…]-Amide) at 1 mM in 50 mM Tris-HCL with pH of 8.0.
Reagents were first mixed according the following regimen:
The above reaction mixture was dispensed into each well of a Flashplate at 70 μl/well. To test the effect of a compound on PDGF-R kinase activity, the test compound either in a fixed concentration or in serially diluted concentrations in 100% DMSO was added to appropriate wells at 1 μl/well.
Enzyme PDGF-R was diluted in Enzyme dilution buffer as following:
The kinase reaction was initiated by adding 30 μl of diluted PDGF-R enzyme solution to each well on the Flashplate containing hot ATP and PLC1, except wells of column 12 rows E through H, which were used to calculate the plate background. The Flashplate was swirled to mix and was incubated at 30° C. for 60 minutes. Then, the reaction mixture was discarded and the Flashplate was washed 3 times each with 200 μl Wash/Stop Buffer. Subsequently, each well on the Flashplate was filled with 200 μl of Wash/Stop buffer. The amount of ^33P retained in each well was measured using a Packard TopCount after the plate was sealed with a transparent plate sealer.
The percentage of inhibition of the test compound on PDGF-R kinase activity is defined as […].
In order to test the potency of inhibition of present compounds, an IC50 for an individual compound was measured using the above procedure. As used herein, the IC50 for PDGF-R kinase activity refers to the concentration of an inhibitor at which the activity of the PDGF-R kinase is reduced by one-half as compared with reactions containing no inhibitor.

[1] abbreviates: PDGF-R kinase activity, read-out: IC50.
The mark [2] stands for this setting: read-out: IC50 (μM) on PDGF-R kinase activity.

As usually defined, the inhibition is the drop in the measured response relative to a control, in per cent. By IC50 is commonly meant the concentration that inhibits the measured activity by half.

T1 sequence (P09619 545-1106): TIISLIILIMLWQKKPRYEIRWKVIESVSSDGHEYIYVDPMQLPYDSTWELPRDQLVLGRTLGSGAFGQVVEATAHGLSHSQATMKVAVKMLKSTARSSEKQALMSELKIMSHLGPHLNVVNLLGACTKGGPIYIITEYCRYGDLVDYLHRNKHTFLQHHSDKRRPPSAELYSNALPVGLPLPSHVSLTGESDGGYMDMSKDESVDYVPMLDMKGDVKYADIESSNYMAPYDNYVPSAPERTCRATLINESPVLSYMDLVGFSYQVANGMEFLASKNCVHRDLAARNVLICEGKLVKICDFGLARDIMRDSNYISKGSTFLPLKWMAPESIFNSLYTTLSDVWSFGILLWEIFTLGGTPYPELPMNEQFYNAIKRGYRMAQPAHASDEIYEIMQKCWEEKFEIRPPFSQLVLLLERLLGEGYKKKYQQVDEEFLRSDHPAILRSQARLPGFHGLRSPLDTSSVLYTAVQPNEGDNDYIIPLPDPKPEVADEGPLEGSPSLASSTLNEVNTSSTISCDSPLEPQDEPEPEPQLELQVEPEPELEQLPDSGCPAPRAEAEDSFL

Turning to `COc1cccc([C@H](C)Nc2[nH]nc3c2Cc2cc(OC)c(OC)cc2-3)c1` (single isomer, unassigned) [Compound 324, (6,7-Dimethoxy-2,4-dihydro-indeno[1,2-c]pyrazol-3-yl)-[1-(3-methoxy-phenyl)-ethyl]-amine], for the setting “PDGF-R kinase activity”, the inhibition at 10 µM is 74.5%. The IC50 under setting [1] was determined as 1.32 µM.

For the molecule `CCC1c2cc(OC)c(OC)cc2-c2[nH]nc(Nc3cccc(Br)c3)c21` (single isomer, unassigned) [Compound 482, (3-Bromo-phenyl)-(4-ethyl-6,7-dimethoxy-1,4-dihydro-indeno[1,2-c]pyrazol-3-yl)-amine], the “Percent Inhibition @ 10 uM” value (PDGF-R kinase activity) came to 100%. The IC50 under setting [1] was 0.0386 µM.

`CCC1c2cc(OC)c(OC)cc2-c2[nH]nc(Nc3cccc(Br)c3)c21` (single isomer, unassigned) [Compound 483, (3-Bromo-phenyl)-(4-ethyl-6,7-dimethoxy-1,4-dihydro-indeno[1,2-c]pyrazol-3-yl)-amine]: the “Percent Inhibition @ 10 uM” value (PDGF-R kinase activity) turned out to be 78.5%. Also, the half-inhibitory concentration (IC50) under setting [1] turned out to be 4.97 µM.

Regarding `CCOc1cccc(Nc2[nH]nc3c2C(C)c2cc(OC)c(OC)cc2-3)c1` (single isomer, unassigned) [Compound 554, (6,7-Dimethoxy-4-methyl-2,4-dihydro-indeno[1,2-c]pyrazol-3-yl)-(3-ethoxy-phenyl)-amine], the “Percent Inhibition @ 10 uM” value (PDGF-R kinase activity) is reported as 102%. The IC50 under setting [1] came out at 0.0208 µM.

`CCC1c2cc(OC)c(OC)cc2-c2n[nH]c(Nc3cccc(Br)c3)c21` (single isomer, unassigned) [Compound 555, *R-(3-Bromo-phenyl)-(6,7-dimethoxy-4-ethyl-2,4-dihydro-indeno[1,2-c]pyrazol-3-yl)-amine]: under “PDGF-R kinase activity”, the inhibition at 10 µM came to 97.5%. The concentration for half-maximal inhibition (IC50) under setting [1] came to 0.0209 µM.

As for `CCOc1cccc(Nc2[nH]nc3c2C(CC)c2cc(OC)c(OC)cc2-3)c1` (single isomer, unassigned) [Compound 556, (3-Ethoxy-phenyl)-(4-ethyl-6,7-dimethoxy-2,4-dihydro-indeno[1,2-c]pyrazol-3-yl)-amine], for the setting “PDGF-R kinase activity”, the “Percent Inhibition @ 10 uM” value came to 98%. The IC50 under setting [1] was 0.0104 µM.

`COc1cc2c(cc1OC)C(C)c1c-2n[nH]c1Nc1cccnc1Cl` (single isomer, unassigned) [Compound 559, (2-Chloro-pyridin-3-yl)-(6,7-dimethoxy-4-methyl-2,4-dihydro-indeno[1,2-c]pyrazol-3-yl)-amine]: the inhibition at 10 µM (PDGF-R kinase activity) was determined as 102%. Besides, the half-inhibitory concentration (IC50) under setting [1] worked out at 0.0371 µM.

Take `COc1cc2c(cc1OC)C(C)c1c-2n[nH]c1Nc1cccc(Br)c1` (single isomer, unassigned) [Compound 568, *S-(3-Bromo-phenyl)-(6,7-dimethoxy-4-methyl-2,4-dihydro-indeno[1,2-c]pyrazol-3-yl)-amine]: under “PDGF-R kinase activity”, the inhibition at 10 µM came out at 78%. For the same molecule, the concentration for half-maximal inhibition (IC50) under setting [1] was found to be 0.79 µM.

As for `CCOc1cccc(Nc2[nH]nc3c2C(C)c2cc(OC)c(OC)cc2-3)c1` (single isomer, unassigned) [Compound 569, (6,7-Dimethoxy-4-methyl-2,4-dihydro-indeno[1,2-c]pyrazol-3-yl)-(3-ethoxy-phenyl)-amine], under “PDGF-R kinase activity”, the “Percent Inhibition @ 10 uM” value came out at 64%. In addition, the IC50 under setting [1] was found to be 5.1 µM.

`CCC1c2cc(OC)c(OC)cc2-c2n[nH]c(Nc3cccc(Br)c3)c21` (single isomer, unassigned) [Compound 570, *S-(3-Bromo-phenyl)-(6,7-dimethoxy-4-ethyl-2,4-dihydro-indeno[1,2-c]pyrazol-3-yl)-amine]: for the setting “PDGF-R kinase activity”, the “Percent Inhibition @ 10 uM” value came to 77.5%. Moreover, the half-inhibitory concentration (IC50) under setting [2] worked out at 2.05 µM.

Regarding `CCOc1cccc(Nc2[nH]nc3c2C(CC)c2cc(OC)c(OC)cc2-3)c1` (single isomer, unassigned) [Compound 571, (3-Ethoxy-phenyl)-(4-ethyl-6,7-dimethoxy-2,4-dihydro-indeno[1,2-c]pyrazol-3-yl)-amine], the “Percent Inhibition @ 10 uM” value (PDGF-R kinase activity) came out at 66%. The half-maximal inhibitory concentration (IC50) under setting [2] was determined as 3.89 µM.

On to `CCC1c2cc(OC)c(OC)cc2-c2n[nH]c(NCc3c(Cl)cccc3Cl)c21` (single isomer, unassigned) [Compound 585, (2,6-Dichloro-benzyl)-(4-ethyl-6,7-dimethoxy-2,4-dihydro-indeno[1,2-c]pyrazol-3-yl)-amine], for which the inhibition at 10 µM (PDGF-R kinase activity) worked out at 102%. Besides, the 50% inhibitory concentration (IC50) under setting [2] came to 0.429 µM.

Turning to `COc1cc2c(cc1OC)C(C)c1c-2n[nH]c1NCc1c(Cl)cccc1Cl` (single isomer, unassigned) [Compound 586, (2,6-Dichloro-benzyl)-(6,7-dimethoxy-4-methyl-2,4-dihydro-indeno[1,2-c]pyrazol-3-yl)-amine], the inhibition at 10 µM (PDGF-R kinase activity) was found to be 100%. In addition, under setting [2], the half-maximal inhibitory concentration (IC50) came out at 0.0278 µM.

On to `CCC1c2cc(OC)c(OC)cc2-c2n[nH]c(Nc3cccnc3Cl)c21` (single isomer, unassigned) [Compound 607, (2-Chloro-pyridin-3-yl)-(4-ethyl-6,7-dimethoxy-2,4-dihydro-indeno[1,2-c]pyrazol-3-yl)-amine], for which the inhibition at 10 µM (PDGF-R kinase activity) is 78%. Further, the IC50 under setting [2] turned out to be 0.547 µM.

As for `c1ccc(Nc2[nH]nc3c2Cc2ccccc2-3)cc1` [Compound 1], the inhibition at 10 µM (PDGF-R kinase activity) was determined as 91%. The concentration for half-maximal inhibition (IC50) under setting [1] is 0.317 µM.

Turning to `Clc1ccc(Nc2[nH]nc3c2Cc2ccccc2-3)cc1` [Compound 3, (4-Chloro-phenyl)-(2,4-dihydro-indeno[1,2-c]pyrazol-3-yl)-amine], for the setting “PDGF-R kinase activity”, the inhibition at 10 µM was 90%. The IC50 under setting [1] turned out to be 0.157 µM.

As for `COc1cc2c(cc1OC)-c1n[nH]c(Nc3ccc(Cl)cc3)c1C2` [Compound 5, (4-Chloro-phenyl)-(6,7-dimethoxy-2,4-dihydro-indeno[1,2-c]pyrazol-3-yl)-amine], the inhibition at 10 µM (PDGF-R kinase activity) came to 91%.

On to `COc1ccc(Nc2[nH]nc3c2Cc2cc(OC)c(OC)cc2-3)cc1` [Compound 6, (6,7-Dimethoxy-2,4-dihydro-indeno[1,2-c]pyrazol-3-yl)-(4-methoxy-phenyl)-amine], for which, under “PDGF-R kinase activity”, the inhibition at 10 µM was found to be 75%. Moreover, under setting [1], the IC50 was 0.131 µM.

As for `COc1ccc2c(c1)Cc1c-2n[nH]c1Nc1ccccc1` [Compound 7, (6-Methoxy-2,4-dihydro-indeno[1,2-c]pyrazol-3-yl)-phenyl-amine], the inhibition at 10 µM (PDGF-R kinase activity) was determined as 92%. The IC50 under setting [1] amounted to 0.217 µM.

Consider `COc1cc2c(cc1OC)-c1n[nH]c(Nc3ccccc3Cl)c1C2` [Compound 9, (2-Chloro-phenyl)-(6,7-dimethoxy-2,4-dihydro-indeno[1,2-c]pyrazol-3-yl)-amine], for which, under “PDGF-R kinase activity”, the inhibition at 10 µM came to 89%.

As for `CCOC(=O)c1ccc(Nc2[nH]nc3c2Cc2cc(OC)c(OC)cc2-3)cc1` [Compound 10, 4-(6,7-Dimethoxy-2,4-dihydro-indeno[1,2-c]pyrazol-3-ylamino)-benzoic acid ethyl ester], for the setting “PDGF-R kinase activity”, the inhibition at 10 µM was determined as 68%. The IC50 under setting [1] is 2.07 µM.

Regarding `COc1cc2c(cc1OC)-c1n[nH]c(Nc3ccccc3OC(F)(F)F)c1C2` [Compound 15, (6,7-Dimethoxy-2,4-dihydro-indeno[1,2-c]pyrazol-3-yl)-(2-trifluoromethoxy-phenyl)-amine], the inhibition at 10 µM (PDGF-R kinase activity) was 79%. Besides, the concentration for half-maximal inhibition (IC50) under setting [1] stood at 1.92 µM.

For the molecule `COc1cc2c(cc1OC)-c1n[nH]c(Nc3ccc(OC(F)(F)F)cc3)c1C2` [Compound 16, (6,7-Dimethoxy-2,4-dihydro-indeno[1,2-c]pyrazol-3-yl)-(4-trifluoromethoxy-phenyl)-amine], under “PDGF-R kinase activity”, the inhibition at 10 µM worked out at 79%. Further, the IC50 under setting [1] is 4 µM.

As for `COc1cc2c(cc1OC)-c1n[nH]c(Nc3ccc(Cl)cc3Cl)c1C2` [Compound 17, (2,4-Dichloro-phenyl)-(6,7-dimethoxy-2,4-dihydro-indeno[1,2-c]pyrazol-3-yl)-amine], the inhibition at 10 µM (PDGF-R kinase activity) worked out at 79%. Further, under setting [1], the IC50 was 3.54 µM.

For the molecule `COc1cc2c(cc1OC)-c1n[nH]c(Nc3ccc(Cl)c(Cl)c3)c1C2` [Compound 18, (3,4-Dichloro-phenyl)-(6,7-dimethoxy-2,4-dihydro-indeno[1,2-c]pyrazol-3-yl)-amine], for the setting “PDGF-R kinase activity”, the inhibition at 10 µM was determined as 65%. Also, under setting [1], the IC50 was 0.23 µM.

On to `COc1cc2c(cc1OC)-c1n[nH]c(Nc3cc(Cl)cc(Cl)c3)c1C2` [Compound 19, (3,5-Dichloro-phenyl)-(6,7-dimethoxy-2,4-dihydro-indeno[1,2-c]pyrazol-3-yl)-amine], for which the inhibition at 10 µM (PDGF-R kinase activity) came out at 91%. Further, the IC50 under setting [1] turned out to be 0.174 µM.
